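96-well plates; 48 h exposure; 5 concentrations. Endpoints by linear interpolation between flanking doses. Not reached: highest tested concentration assigned. TGI marks complete inhibition of growth.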
Legend:
Assay in all cases: NCI anticancer screen, dose series, 48 h
IGROV1 ovarian = tested on: IGROV1 ovarian
786-0 renal = tested on: 786-0 renal
SW-620 colon = tested on: SW-620 colon
HS 578T breast = tested on: HS 578T breast
NCI/ADR-RES ovarian = tested on: NCI/ADR-RES ovarian
SK-OV-3 ovarian = tested on: SK-OV-3 ovarian
NCI-H522 lung = tested on: NCI-H522 lung
OVCAR-5 ovarian = tested on: OVCAR-5 ovarian
MDA-MB-231 breast = tested on: MDA-MB-231 breast
MCF7 breast = tested on: MCF7 breast
UACC-62 melanoma = tested on: UACC-62 melanoma
MOLT-4 leukemia = tested on: MOLT-4 leukemia
CCRF-CEM leukemia = tested on: CCRF-CEM leukemia
M14 melanoma = tested on: M14 melanoma
ACHN renal = tested on: ACHN renal
EKVX NSCLC = tested on: EKVX NSCLC
NCI-H460 lung = tested on: NCI-H460 lung
HOP-62 NSCLC = tested on: HOP-62 NSCLC
A498 renal = tested on: A498 renal
OVCAR-3 ovarian = tested on: OVCAR-3 ovarian

SMILES	TGI (IGROV1 ovarian) [µM]	TGI (786-0 renal) [µM]	TGI (SW-620 colon) [µM]	TGI (HS 578T breast) [µM]	TGI (NCI/ADR-RES ovarian) [µM]	TGI (SK-OV-3 ovarian) [µM]	TGI (NCI-H522 lung) [µM]	TGI (OVCAR-5 ovarian) [µM]	TGI (MDA-MB-231 breast) [µM]	TGI (MCF7 breast) [µM]	TGI (UACC-62 melanoma) [µM]	TGI (MOLT-4 leukemia) [µM]	TGI (CCRF-CEM leukemia) [µM]	TGI (M14 melanoma) [µM]	TGI (ACHN renal) [µM]	TGI (EKVX NSCLC) [µM]	TGI (NCI-H460 lung) [µM]	TGI (HOP-62 NSCLC) [µM]	TGI (A498 renal) [µM]	TGI (OVCAR-3 ovarian) [µM]
C/C1=C\CC[C@@]2(C)O[C@@H]2[C@H]2OC(=O)C(C)C2C[C@H]1O (stereo partly specified)	> 100	> 100	> 100	> 100	> 100	> 100	> 100	> 100	> 100	> 100	> 100	> 100	> 100	> 100	> 100	> 100	> 100	–	–	–
COc1cc(/C=C2\N=C(c3ccccc3)N(/N=C/c3cc4cc(C)ccc4nc3Cl)C2=O)cc(OC)c1OC	> 100	> 100	> 100	88.8	> 100	> 100	–	> 100	> 100	> 100	> 100	51	–	> 100	> 100	> 100	> 100	> 100	> 100	> 100
CCOC(=O)/C(=C\NC(C)(C)C)c1nc2ccccc2o1	> 100	70.7	> 100	63.9	> 100	> 100	> 100	> 100	–	> 100	50.6	–	54.6	> 100	68.5	> 100	> 100	> 100	> 100	> 100
COc1ccc(C(=O)N2CCN(c3ccc4[nH]c(=O)oc4c3)CC2)cc1	> 100	> 100	> 100	> 100	> 100	> 100	> 100	> 100	> 100	> 100	> 100	> 100	> 100	> 100	> 100	> 100	> 100	> 100	–	> 100
CSc1ccc(-c2cc(-c3nc4ccccc4[nH]3)nc3[nH]c(-c4nc5ccccc5[nH]4)cc(=O)c23)cc1	> 100	> 100	–	> 100	> 100	> 100	> 100	> 100	–	> 100	> 100	> 100	> 100	> 100	> 100	> 100	> 100	> 100	–	> 100
COC(=O)/C(C#N)=C(\Nc1ccccc1)N1CCCCC1	> 100	> 100	> 100	> 100	> 100	> 100	> 100	> 100	> 100	> 100	–	> 100	–	> 100	> 100	> 100	> 100	> 100	> 100	> 100
Nc1c(Cl)c([N+](=O)[O-])cc2c1OCCCCO2	> 100	> 100	> 100	> 100	> 100	55.6	5.28	> 100	> 100	> 100	> 100	> 100	> 100	> 100	> 100	> 100	> 100	> 100	–	> 100
CCOC(=O)c1c(-c2ccccc2)[nH]c2ccc(Cl)cc2c1=O	> 100	> 100	> 100	> 100	> 100	> 100	60.8	> 100	> 100	> 100	> 100	> 100	> 100	> 100	93.2	> 100	> 100	> 100	–	38.9
COc1ccc(N2C(=O)/C(=C\c3cc(OC)c(OC)c(OC)c3)S(=O)(=O)C2c2ccccc2)cc1 (stereo unspecified)	–	> 100	> 100	> 100	78.9	> 100	> 100	–	> 100	> 100	> 100	> 100	> 100	84.2	> 100	–	> 100	> 100	> 100	> 100
C/C(=N/NC(=S)N1CCCC1)c1cccc(/C(C)=N\NC(=S)N2CCCC2)n1	37.1	2.66	4.33	25.2	7.62	4.65	7.77	6.85	3.23	–	9.39	2.18	3.01	2.56	3.4	3.49	3.63	0.891	2.59	2.63
Cc1ccccc1NC(=O)/C(C#N)=N\Nc1nc[nH]c1C(N)=O	> 100	> 100	> 100	> 100	> 100	> 100	> 100	> 100	> 100	> 100	> 100	> 100	> 100	> 100	> 100	> 100	> 100	> 100	–	> 100
Cc1ncc([N+](=O)[O-])n1CCNC(=O)CCn1ccnc1[N+](=O)[O-]	> 100	> 100	> 100	> 100	> 100	> 100	> 100	> 100	–	> 100	> 100	> 100	> 100	> 100	> 100	> 100	> 100	> 100	–	> 100
CC(C)N(c1cc2c(cc1F)c(=O)c(C(=O)O)cn2-c1ccc(N2CCN(C)CC2)cn1)C(C)C	> 100	> 100	> 100	> 100	> 100	> 100	–	> 100	> 100	> 100	–	> 100	> 100	> 100	–	> 100	> 100	> 100	> 100	> 100
C=C1CC(COc2ccc3ccc(=O)oc3c2)(c2ccccc2)OC1=O (stereo unspecified)	3.36	2.84	1.94	> 23.7	12.4	16.1	2.29	13	6.88	2.78	2.92	4.16	2.7	2.4	3.61	22	28	26.9	–	3.36
C=CC(c1ccccc1)C1(O)c2cccc(O)c2C(=O)c2c(O)cccc21 (stereo unspecified)	32.6	31.1	37	34.8	31.2	–	30.1	54.2	36.7	37.8	–	46.8	–	34.5	31.9	38.6	36.7	41.1	34.6	38.9
Cc1ccc(S(=O)(=O)n2cnc(CC(NC(=O)C3CCC(=O)N3C(=O)OCc3ccccc3)C(=O)N3CCCC3C(=O)NN)c2)cc1 (stereo unspecified)	> 100	> 100	> 100	> 100	–	–	–	> 100	> 100	> 100	–	> 100	–	> 100	> 100	> 100	> 100	> 100	> 100	–
COC(=O)c1c(C(=O)OC)c(C(c2ccccc2)c2ccccc2)n(-c2ccccc2)c1Cl	> 10	> 10	> 10	> 10	> 10	–	–	> 10	> 10	> 10	> 10	8.1	> 10	> 10	> 10	> 10	> 10	> 10	> 10	> 10
NC(=S)N/N=C(/C(=O)Nc1nc2ccc([N+](=O)[O-])cc2s1)C1C(=O)NC(=S)NC1=O	–	> 100	> 100	74.3	> 100	> 100	–	> 100	> 100	> 100	> 100	> 100	> 100	> 100	> 100	–	> 100	–	> 100	> 100
C[C@@H]1OC2(O)[C@@H]3CCCN3C(=O)N(Cc3ccccc3)N2C1=O (stereo partly specified)	> 100	> 100	> 100	> 100	> 100	> 100	–	> 100	> 100	> 100	> 100	> 100	> 100	> 100	> 100	> 100	> 100	> 100	> 100	> 100
CN1CCN(C(=S)N(C)C(=O)c2cccs2)CC1	> 100	> 100	> 100	> 100	–	–	> 100	> 100	> 100	> 100	> 100	> 100	> 100	> 100	> 100	–	> 100	–	–	> 100
O=C(/C=C/c1ccccc1)CCC1C(=O)NC(=O)NC1=O	> 100	> 100	> 100	> 100	> 100	> 100	> 100	> 100	> 100	> 100	> 100	> 100	–	> 100	> 100	> 100	> 100	–	> 100	> 100
COC(=O)[C@]12CSC[C@H]1C[C@H](c1ccc(N(C)C)cc1)N2	> 100	> 100	> 100	> 100	> 100	> 100	–	> 100	> 100	> 100	> 100	> 100	> 100	> 100	> 100	> 100	> 100	> 100	> 100	> 100
CCOC(=O)c1c(NC(=O)c2ccc(OC)cc2)sc2c1CCCC2	> 100	> 100	> 100	> 100	> 100	–	–	> 100	> 100	> 100	> 100	> 100	> 100	> 100	> 100	> 100	> 100	> 100	> 100	> 100
C=CC1(c2ccc(Br)cc2)OCCCO1	> 100	> 100	> 100	> 100	> 100	> 100	> 100	> 100	> 100	> 100	> 100	> 100	> 100	> 100	> 100	> 100	> 100	> 100	–	> 100
C(/C=N/NC1=NCCCN1)=N\NC1=NCCCN1	> 100	> 100	> 100	> 100	> 100	> 100	> 100	> 100	> 100	> 100	> 100	> 100	> 100	> 100	> 100	> 100	> 100	> 100	–	> 100

Reference: PubChem BioAssay (NCI)
